This is an account of results in US12616706B2, “Compositions and methods of use comprising substances with neural plasticity actions administered at non-psychedelic/psychotomimetic dosages and formulations” (Arbormentis LLC, priority 2019, dated 2026).

One series deals with PSD95. The series can be described thus: PSD95 protein expression in lateral cortex (Western blot). Type of series: in vivo, mouse. The settings on record: not significant. On the procedure:
(§1) Mice were euthanized by cervical dislocation. Immediately after the sample, fresh tissues were cut isolating 4 brain regions (cerebellum, lateral cortex, olfactory bulb, and the remaining brain), quickly collected and put in cryovials in liquid nitrogen and then kept at −80° C.
(§2) Brain tissues were lysed in RIPA lysis buffer (Invitrogen) and 1% (v/v) protease and phosphatase inhibitor cocktail (Sigma). Proteins were extracted by centrifugation at 14000 rpm at 4° C. for 30 minutes. Bicinchoninic Acid Assay (BCA) kit (1113 catalog #23225 Thermo-Scientific) was used to determine the protein concentration following the manufacturer's instructions. Western blot analyses to determine NMDAR 1 (primary antibody: Abcam, ab68144), PSD95 (Bioss, bs-0179R-TR), p70 (Bioss, bs-3498R-TR) and synapsin 1 (Bioss, bs-3501 R-TR) protein expression were performed using 30 μg per lane of nuclear or lateral cortex lysates. SDS-PAGE was performed on 8% polyacrylamide gels in reducing-denaturing condition and proteins were transferred to a 0.45 μm nitrocellulose membrane (BioRad Laboratories). Signal intensity of immunoreactive bands was analyzed by the Quantity One software (Bio-Rad Laboratories S.r.l.) and was normalized to that of the loading control GAPDH.
In general terms: Immunoblotting shows a protein as a band on a membrane.

A further series has as its system NMDAR2B. The series can be described thus: NMDAR2B protein expression in ARPE-19 cells (immunofluorescence). Type of series: cell-based. The settings on record: chronic treatment with psilocin carbamate for 96 hours. As to the method: (§3) First, the present inventors assessed the expression of three NMDAR subunits (NMDAR1, NMDAR2A, NMDAR2B) and two 5-HT2 subtypes (5-HT2A, 5-HT2C) by immunofluorescence coupled to confocal microscopy. 7,500 cells/well were plated in a 24-well plate on sterile glass coverslips. The next day, the immunofluorescence analysis was performed. The following primary antibodies were used: anti-NMDAR1A (Abcam, ab68144), NMDAR2A (Bioss, bs-3507R-TR), NMDAR2B (Bioss, bs-0222R-TR), 5-HT2A (Bioss, bs-12049R), 5-HT2C (Bioss, 2959R), and the secondary antibody goat anti-rabbit IgG (GeneTex, GTX213110-04). The images of the immunostained cells were acquired by means of a confocal microscope Zeiss LSM 800, using a 63× magnification and can be seen in FIGS. 9A-9E. ImageJ software was used to quantify the intensity of the fluorescent signal.
(§4) 7,500 cells/well were plated in a 24-well plate on sterile glass coverslips. […] After 6 days an immunofluorescence analysis coupled to confocal microscopy was performed with the primary and secondary antibodies described above.

The nature of series [1]: Blood glucose after 2-hours fasting, mice. The series is classed as in vivo, mouse. To be noted: 0.05 mg/kg daily. On the procedure:
(§5) Mice were fed with standard diet and fructose (30% w/v in drinking water) was added to their diet 4 days before randomization.
Before sacrifice, the present inventors measured the blood glucose concentration of the mice after a 2-hours fasting.

The test system of a further series is NMDAR2A. Nature of the series: NMDAR2A protein expression in ARPE-19 cells (immunofluorescence). To be noted: chronic treatment with psilocin carbamate for 96 hours. The series is classed as cell-based. On the procedure: as §3, §4
Series [2] has as its system c57BL/6 male mice. Nature of the series: Locomotion Activity Test (LMA), mice. The series is classed as in vivo, mouse. The settings on record: chronic (14 day) low dose 0.05 mg/Kg. As to the method:
In order to ascertain whether the chronic administration of low dose psilocin-carbamate alters behavior in tested mice, the present inventors performed the Locomotion Activity Test (LMA), the Novelty Suppressed Feeding (NSF) test and the olfactory habitation/dishabituation test before and after the psilocin-carbamate treatment.
(§6) LMA has the aim of assessing spontaneous locomotor activity in laboratory animals. This test is performed in a gray arena (open field) exposed to light of regulated intensity (24 and 30 lux), avoiding light-shadow zones within the perimeter in which the experiment takes place. Along the base of the open field, 4 standard sized squares have been drawn, clearly visible even in the dark and large enough to allow the animal to remain inside them in all its length. The LMA test has been preceded by one hour of habituation, at the end of which the rat was inserted inside the open field, in one of the previously designed squares. The movements and behaviors in reaction to the environment were then recorded for 10 minutes.
Three fundamental aspects were assessed: 1. the number of crossings, i.e., the number of crossings made by the animal from one square to another, passing the line defining it with both legs. […]

Another series deals with NMDAR1. Nature of the series: NMDAR1 protein expression in lateral cortex (Western blot). To be noted: 0.05 mg/kg daily. The series is classed as in vivo, mouse. As to the method: as §1, §2
Another series has as its system p70. Nature of the series: p70 protein expression in lateral cortex (Western blot). The series is classed as in vivo, mouse. The settings on record: not detected in adult mice. As to the method:
as §1, §2

In series [3] the test system is c57BL/6 male mice. Nature of the series: Toxicity and tolerability observation, high fructose mice. The series is classed as in vivo, mouse. The settings on record: young. On the procedure:
as §5
During the experiment, the animals were carefully monitored every day for a period not exceeding the maximum experimental endpoints. Access to water (30% w/v fructose) and food ad libitum was allowed. No obvious clinical symptoms were observed during the experimental period.

A further series concerns synapsin 1. The series can be described thus: Synapsin 1 protein expression in lateral cortex (Western blot). Type of series: in vivo, mouse. To be noted: adult mice; not significant. As to the method: as §1, §2
A short description of series [4]: Body and liver weight at sacrifice, mice. The series is classed as in vivo, mouse. To be noted: 0.05 mg/kg daily. On the procedure:
as §5

The conditions of series [5]: psilocybin 10, 20, 30 mg; cited from earlier work.
The test system of series [6] is Ki67 positive cells in the subventricular zone. The series can be described thus: Neurogenesis in SVZ, Ki67 positive cells. The series is classed as in vivo, rat. To be noted: WD rats, 0.05 mg/Kg gastric gavage 15 days; WD 2722±225, SD 4601±17. As to the method: Methods: To perform immunohistochemistry, rats were euthanized and then perfused with 0.9% saline followed by 4% paraformaldehyde (PFA) in 1× phosphate saline buffer (PBS) (rats n tot=8, n=2 for each condition). Rats brains were promptly dissected and then post-fixed in 4% PFA for 48 hours. Brains were embedded in 2.5% agarose (Sigma-Aldrich) and then sectioned in sagittal sections (40 μm thick) at the vibratome (Vibratome VT1000S, Leica). Sagittal brain sections including the subventricular zone, were treated with a blocking solution of 10% normal goat serum (Jackson ImmunoResearch) in 1×PBS for 1 hour and then stained with rabbit anti-Ki67 monoclonal antibody (Abcam, AB 16667) (1:200) overnight. […] Brain sections were mounted with Aqua-Poly/Mount (Polysciences). Images of the sagittal sections containing the subventricular zone were acquired at the confocal microscope (Zeiss LSM 700) equipped with an EC Plan-Neofluar 20×/0.50 M27 objective (Zeiss). Ki67 positive cells were counted along the lateral wall of the lateral ventricles in rat brain sagittal sections, using ImageJ software (RRID: nif-000030467).

Series [7] has as its system Western Diet fed rats. Nature of the series: Locomotion Activity Test (LMA), WD rats. The settings on record: chronic (15 day) low dose 0.05 mg/Kg. Type of series: in vivo, rat. As to the method: as §6, with “In order to ascertain whether the chronic administration of low dose psilocybin alters behavior in WD fed rats, the present inventors performed the Locomotion Activity Test (LMA) before and after the psilocybin treatment (see FIGS. 7A-7C). This test has” for “LMA has”
In the LMA test, three fundamental aspects were assessed: 1. the number of crossings, i.e., the number of crossings made by the animal from one square to another, passing the line defining it with both legs. This value gives an indication of the distance traveled by the animal during the test and of its locomotor activity; 2. the number of rearings, i.e, the number of times the animal lifts up on the two posterior legs. […]

In series [8] the test system is Western Diet fed rats. Nature of the series: Liver histology (hematoxylin-eosin), hepatic steatosis. The settings on record: WD rats, 0.05 mg/kg 15 days; median (range in next column); WD alone 15.
On the set-up of series [9]: AUC: unit not given beside the values. To be noted: cited from earlier work.

Structures are written as SMILES. Like-named read-outs stand apart in the source and are kept apart here.

For `CC[C@H](C)[C@H](NC(=O)Oc1cccc2[nH]cc(CCN(C)C)c12)C(=O)O` [psilocin-carbamate], the “PSD95 protein expression, lateral cortex” value is reported as “decrease” in the series on PSD95 (adult mice, tendency) and “tended to increase” in the series on PSD95 (young mice). Besides, the NMDAR2B expression result in the series with NMDAR2B is reported as “reduction”. For the same molecule, the Blood glucose control entry in [1] (mice) is “no effect”. Besides, in [1] (old mice), the Blood glucose concentration result is recorded as “tendency towards a lower blood glucose concentration”. The NMDAR2A expression entry with NMDAR2A is recorded as “reduction”. In the series on c57BL/6 male mice [2], the Psychedelic behavioral effects entry was “no evidence of psychedelic behavioral effects”. Besides, the “NMDAR1 protein expression, lateral cortex” value with NMDAR1 (adult mice) is “tended to decrease”; in the series with NMDAR1 (young and old mice) it was “tended to increase”. Further, in the series with p70, the “p70 protein expression, lateral cortex” value is recorded as “no significant differences”. The Safety and tolerability entry with c57BL/6 male mice [3] (0.05 mg/kg daily for 14 days, adult and old mice) was “safe and well-tolerated”. For the same molecule, in the series with c57BL/6 male mice [3] (adult, old mice, 0.05 mg/kg gastric gavage, 14 days), the “Signs of toxicity and mortality” value is “No signs of toxicity and no mortality”. For the same molecule, in the series with synapsin 1, the “Synapsin 1 protein expression, lateral cortex” value was “tended to increase”. Further, in series [4] (adult mice), the “Liver weight at sacrifice” value is “decrease”. The “Body weight at sacrifice” value in [4] (adult mice, p<0.05) is “decrease”. Also, the “Body and liver weight” value in [4] (young mice) is given as “no effect”.
For `CN(C)CCc1c[nH]c2cccc(OP(=O)(O)O)c12` [psilocybin], the “Psychomotor performance, working memory, episodic memory, associative learning, visual perception” value in series [5] is recorded as “dose-dependent negative effects”. In series [6], the “New cells (Ki67 positive) in SVZ, n” value turned out to be 3404±199. In addition, in the series on Western Diet fed rats [7], the Psychedelic behavioral effects entry is reported as “no evidence of psychedelic behavioral effects”. Moreover, in the series with Western Diet fed rats [8], the “% Hepatic macrovescicular steatosis” value was found to be 5%. For the same molecule, in series [9] (1 mg IV psilocybin), the AUC was 240+−55 and the Cmax is given as 12.9+−5.6 ng/ml. Also, in series [9] (oral psilocybin 10-20 mg), the AUC is given as 1963+−659, the Cmax is 8.2+−2.8 ng/ml and the Tmax is 105+−37 min.
